Tests used:
[1] = Leaching study of treated wood test blocks into water (Example 2); type: physicochemical
Procedure: Wood test blocks prepared in accordance with Example 1, were subjected to a leaching study.
In this leaching study the following procedure was observed. • 1. The wood test block was placed in 500 ml plastic containers with screw caps. • 2. Water was added to the container to over flowing and the container was sealed. • 3. The containers were stored at room temperature. • 4.

[2] = Leaching study of treated wood test blocks into water (Example 4); type: physicochemical
Procedure: In this example test blocks were prepared in accordance with the procedure of Example 1 and subjected a leaching study using the following procedure. • 1. The wood test blocks were placed in 500 ml plastic containers with screw caps. • 2. Water was added to the containers to over flowing and the container was sealed. • 3. The containers were stored at room temperature.
4. After two days the containers were opened and the leachate was analyzed for active quaternary compound (QAC) using a Hach DR/2400 Spectrophotometer.

[3] = tested on: CANDIDA ALBICANS; details: ATCC # 10231; lowest concentration which inhibits growth in all replicates
[4] = tested on: PSEUDOMONAS AERUGINOSA; details: ATCC # 15442; lowest concentration which inhibits growth in all replicates
[5] = tested on: STAPHYLOCOCCUS AUREUS; details: ATCC # 6538; ten-minute contact time
[6] = tested on: PSEUDOMONAS AERUGINOSA; details: ATCC # 15442; ten-minute contact time
[7] = tested on: METHICILLIAN-RESISTANT STAPHYLOCOCCUS AUREUS; details: ATCC # 33593; lowest concentration which inhibits growth in all replicates
[8] = tested on: AS[…]; details: ATCC # 16424; lowest concentration which inhibits growth in all replicates
[9] = tested on: EN[…]; details: ATCC # 13048; lowest concentration which inhibits growth in all replicates
[10] = tested on: SERRATIA MARCESANS; details: ATCC # 13880; lowest concentration which inhibits growth in all replicates
[11] = tested on: ESCHERICHIA; details: ATCC # 11229; lowest concentration which inhibits growth in all replicates
[12] = tested on: ST[…]; details: ATCC # 6538; lowest concentration which inhibits growth in all replicates
[13] = tested on: SALMONELLA CHOLERAESUIS; details: ATCC # 10708; ten-minute contact time
[14] = tested on: LISTERIA MONOCYTOGENES; details: ATCC # 35152; lowest concentration which inhibits growth in all replicates

| Substance | leaching of quaternary ammonium compound relative to the ADBAS compound ([1]; Example 2, ratio of averages) [times] | AVERAGE active quaternary compound in leachate, FINAL DATE May 8, 2004 ([1]; average of three blocks, water, room temperature, after two days) [PPM QAC] | leaching relative to the ADBAS compound ([2]; Example 4, ratio of averages) [times] | AVERAGE active quaternary compound in leachate, FINAL DATE Sep. 5, 2004 ([2]; average of three blocks, water, room temperature, start Sep. 1, 2004) [PPM QAC] | Minimum Inhibitory Concentration (MIC) CONCENTRATION [3] [PPM] | Minimum Inhibitory Concentration (MIC) CONCENTRATION [4] [PPM] | AOAC USE-DILUTION VALUES CONCENTRATION [5] [PPM] | AOAC USE-DILUTION VALUES CONCENTRATION [6] [PPM] | Minimum Inhibitory Concentration (MIC) CONCENTRATION [7] [PPM] | Minimum Inhibitory Concentration (MIC) CONCENTRATION [8] [PPM] | Minimum Inhibitory Concentration (MIC) CONCENTRATION [9] [PPM] | Minimum Inhibitory Concentration (MIC) CONCENTRATION [10] [PPM] | Minimum Inhibitory Concentration (MIC) CONCENTRATION [11] [PPM] | Minimum Inhibitory Concentration (MIC) CONCENTRATION [12] [PPM] | AOAC USE-DILUTION VALUES CONCENTRATION [13] [PPM] | Minimum Inhibitory Concentration (MIC) CONCENTRATION [14] [PPM] |
| --- | --- | --- | --- | --- | --- | --- | --- | --- | --- | --- | --- | --- | --- | --- | --- | --- |
| alkyl dimethyl benzyl ammonium chloride [ADBAC] | 3.25 | 45.24 | 8.1 | 480.0 | – | – | – | – | – | – | – | – | – | – | – | – |
| alkyl dimethyl benzyl ammonium saccharinate [ADBAS] | – | – | – | – | 100 | 100 | 600 | 700 | 0.5 | 10 | 10 | 10 | 10 | 1 | 600 | 1 |

From patent US20060128773A1, “Wood preservatives and waterproofing compositions and processes” (priority 2004, published 2006)
